Measured values taken from PMC8624133, “10th Trends in Medical Mycology Held on 8 to 11 October 2021, Aberdeen, Scotland, Organized by the European Confederation of Medical Mycology (ECMM)” (Journal of Fungi, 2021).
Values after ≈ are worked out from the molar mass of the structure shown. Non-standard residues stand in square brackets, D forms with d. Residues, ends and D or L forms follow the SMILES beside them. No end group written: not given here. pS = N[C@@H](COP(=O)(O)O)C(=O)O

Experiments:
C. krusei ATCC 6558 = assay: Broth microdilution of modified HDPs; type: cell-based, Candida krusei; conditions: 0.19 to 50 μg/mL tested
From the text: (§1) Materials & Methods: From the Scarabaeidae family transcriptome, 14 promising HDPs were identified. Subsequently, we designed new sequences modifying the net charge, hydrophobic angle and the general composition of amino acids, among other properties, in order to improve the HDPs antifungal activity. The in vitro antifungal susceptibility of the 14 modified HDPs against Candida krusei, ATCC 6558, Candida parapsilosis ATCC 22019, Candida glabrata ATCC 2001, Candida tropicalis ATCC 750, Cryptococcus neoformans H99 and Cryptococcus gattii H0058-I-2029 isolates were evaluated by broth microdilution, with a concentration ranging from 0.19 to 50 μg/mL for all peptides.

[1] = system: C. parapsilosis ATCC 22019; assay: Broth microdilution of modified HDPs; type: cell-based, Candida parapsilosis; conditions: 0.19 to 50 μg/mL tested
From the text: as §1

C. albicans SC5314 = assay: Broth microdilution of modified HDPs; type: cell-based, Candida albicans; conditions: 0.19 to 50 μg/mL tested
C. tropicalis ATCC 750 = assay: Broth microdilution of modified HDPs; type: cell-based, Candida tropicalis; conditions: 0.19 to 50 μg/mL tested
From the text: as §1

C. albicans ATCC 1453 = assay: Broth microdilution of modified HDPs; type: cell-based, Candida albicans; conditions: 0.19 to 50 μg/mL tested
C. glabrata ATCC 2001 = assay: Broth microdilution of modified HDPs; type: cell-based, Candida glabrata; conditions: 0.19 to 50 μg/mL tested
From the text: as §1

C. neoformans H99 = assay: Broth microdilution of modified HDPs; type: cell-based, Cryptococcus neoformans; conditions: 0.19 to 50 μg/mL tested
From the text: as §1

C. gattii H0058-I-2029 = assay: Broth microdilution of modified HDPs; type: cell-based, Cryptococcus gattii; conditions: 0.19 to 50 μg/mL tested
From the text: as §1

C. auris [2] = assay: CLSI M27-A3 broth microdilution; type: cell-based, Candida auris; conditions: for GM MIC (≥90% reduction of visible growth): 256–16 μg/mL tested, duplicate at two times
[3] = system: nine strains of Candida spp.; assay: CLSI M27-A3 broth microdilution; type: cell-based
[4] = system: P. insidiosum (strains CBS101555, P38, ATCC90586); assay: Radial growth assay; type: cell-based, Pythium insidiosum; conditions: for MIC: Pythium insidiosum; for reduction of growth compared to the control: colony radial growth
Procedure: These agriculture fungicides were initially evaluated for inhibitory effect against 3 phylogenetical distinct strains of P. insidiosum (i.e., strains CBS101555, P38, and ATCC90586) isolated from humans and animal with pythiosis in Thailand, Brazil, and United States. A radial growth assay was employed for the in vitro susceptibility analysis. […] The percentage of the colony’s radial growth of the treated organism was calculated in relation to the untreated control. The microscopic changes of the microorganisms were recorded.

C. auris [5] = assay: EUCAST EDef 7.3.1 MIC and checkerboard microdilution; type: cell-based, Candida auris
Procedure: Methods: We studied 22 C. auris isolates obtained from different clinical samples from the Hospital La Fe, Valencia, Spain (eight from blood culture, seven from oropharynx and seven from urine cultures). Candida parapsilosis ATCC 22019 and Candida krusei ATCC 6258 were used as quality controls. The minimum inhibitory concentration (MIC) was determined according to the European Committee on Antibiotic Susceptibility Testing (EUCAST) EDef 7.3.1 document. The interaction between citral and the rest of antifungal drugs was assessed by a checkerboard microdilution method. […] The in vitro interaction of the drug combinations was interpreted in terms of the fractional inhibitory concentration index (FICI) as follows: FICI < 1, synergistic; FICI equal to 1, additive; and FICI > 1, indifferent or antagonistic.

Row | Compound | MIC (C. krusei ATCC 6558) | MIC [1] | MIC (C. albicans SC5314) | MIC (C. tropicalis ATCC 750) | MIC (C. albicans ATCC 1453) | MIC (C. glabrata ATCC 2001) | MIC (C. neoformans H99) | MIC (C. gattii H0058-I-2029) | further results
1 | KSKRWRKFEKRVKKIFEKTKEAK-NH2 [Act2] | 0.78 µg/mL | 1.56 µg/mL | >50 µg/mL | 50 µg/mL | >50 µg/mL | 1.56 µg/mL | 25 µg/mL | 3.12 µg/mL | 
2 | GSKRWRKFEKRVKKIFEHTKEAK-NH2 [Act8] | 0.78 µg/mL | 1.56 µg/mL | >50 µg/mL | >50 µg/mL | >50 µg/mL | 3.12 µg/mL | 50 µg/mL | 3.12 µg/mL | 
3 | GSKRWRKFEKRVKK-NH2 [domcec] | 3.12 µg/mL | 3.12 µg/mL | >50 µg/mL | >50 µg/mL | >50 µg/mL | 6.25 µg/mL | >50 µg/mL | >50 µg/mL | 
4 | GSKRWRKFEKRVKKIFEETKEALPVVQGVAGVAGAVGRR-NH2 [ConCec] | 0.78 µg/mL | 0.39 µg/mL | >50 µg/mL | 25 µg/mL | >50 µg/mL | 1.56 µg/mL | 25 µg/mL | 1.56 µg/mL | 
5 | KSKRWRKFEKRVKKIFEHTKEAK-NH2 [Act4] | 0.78 µg/mL | 1.56 µg/mL | >50 µg/mL | 50 µg/mL | >50 µg/mL | 3.12 µg/mL | 50 µg/mL | 1.56 µg/mL | 
6 | Cc1ccc(C(C)C)cc1O [carvacrol] |  |  |  |  |  |  |  |  | GM MIC (≥90% reduction of visible growth) (C. auris [2]): 215.3 µg/mL
7 | KSKRWRKFEKRVKKIFEKFKEAK-NH2 [Act2.2] | 0.78 µg/mL | 1.56 µg/mL | >50 µg/mL | 12.5 µg/mL | >50 µg/mL | 1.56 µg/mL | 12.5 µg/mL | 1.56 µg/mL | 
8 | GSKRWRKFEKRVKKVFEHTKEA-NH2 [ox322] | 1.56 µg/mL | 1.56 µg/mL | >50 µg/mL | >50 µg/mL | >50 µg/mL | 3.12 µg/mL | 50 µg/mL | 3.12 µg/mL | 
9 | C=C(C)[C@H]1CC=C(C)CC1 [D-limonene] |  |  |  |  |  |  |  |  | MICs range (C. auris [2]): 16 to 128 µg/mL; GM MIC (≥90% reduction of visible growth) (C. auris [2]): 20.39 µg/mL; selectivity index (SI) ([3]; C. glabrata LMDM 34 vs HaCat): 6; selectivity index (SI) ([3]; C. methapsilosis MUM 1512 vs HaCat): 50; selectivity index (SI) ([3]; C. orthopsilosis MUM 1713 vs HaCat): 25; selectivity index (SI) ([3]; C. tropicalis ATCC 200956 vs HaCat): 12
10 | Cc1ccc(C(C)C)c(O)c1 [thymol] |  |  |  |  |  |  |  |  | GM MIC (≥90% reduction of visible growth) (C. auris [2]): 104 µg/mL
11 | Cc1ccc(-c2c(Cl)nc(C#N)n2S(=O)(=O)N(C)C)cc1 [cyazofamid] |  |  |  |  |  |  |  |  | MIC [4]: 16 µg/mL (≈ 49.3 µM); reduction of growth compared to the control [4]: at least 70%
12 | COc1ccc(C(=CC(=O)N2CCOCC2)c2ccc(Cl)cc2)cc1OC [dimethomorph] |  |  |  |  |  |  |  |  | inhibition [4]: no significant inhibition
13 | KSKRWRKFEKRVKKIFEKTKEA-NH2 [Act1] | 1.56 µg/mL | 3.12 µg/mL | >50 µg/mL | 50 µg/mL | >50 µg/mL | 3.12 µg/mL | 50 µg/mL | 6.25 µg/mL | 
14 | CSC1=N[C@@](C)(c2ccccc2)C(=O)N1Nc1ccccc1 [fenamidone] |  |  |  |  |  |  |  |  | MIC [4]: 64 µg/mL (≈ 206 µM); reduction of growth compared to the control [4]: at least 70%
15 | RSKKWRKIEKRVKKIFEKTKEA-NH2 [sat122] | 1.56 µg/mL | 0.39 µg/mL | >50 µg/mL | 50 µg/mL | >50 µg/mL | 3.12 µg/mL | 50 µg/mL | 3.12 µg/mL | 
16 | GSKRWRKFEKRVKKIFEKTKEAK-NH2 [Act6] | 0.78 µg/mL | 1.56 µg/mL | >50 µg/mL | >50 µg/mL | >50 µg/mL | 3.12 µg/mL | 50 µg/mL | 3.12 µg/mL | 
17 | O=C(NCc1ncc(C(F)(F)F)cc1Cl)c1c(Cl)cccc1Cl [Fluopicolide, fluopicolide] |  |  |  |  |  |  |  |  | reduction of growth compared to the control [4]: at least 70%; MICs ([4]; tested at 0.25–[…], 3 biological replicates): 8 µg/mL
18 | GSKRWRKFEKRVKKIFEHTKEA-NH2 [Act7] | 0.78 µg/mL | 1.56 µg/mL | >50 µg/mL | >50 µg/mL | >50 µg/mL | 3.12 µg/mL | 50 µg/mL | 3.12 µg/mL | 
19 | Cc1cc(C(F)(F)F)nn1CC(=O)N1CCC(c2nc(C3=NOC(c4c(F)cccc4F)C3)cs2)CC1 (stereo not drawn) [oxathiapiprolin] |  |  |  |  |  |  |  |  | inhibition [4]: no significant inhibition
20 | GSKRWRKFEKRVKKIFEKTKEA-NH2 [Act5] | 1.56 µg/mL | 3.12 µg/mL | 25 to 50 µg/mL | >50 µg/mL | >50 µg/mL | 3.12 µg/mL | 25 µg/mL | 1.56 µg/mL | 
21 | KSKRWRKFEKRVKKIFEHTKEA-NH2 [Act3] | 0.78 µg/mL | 3.12 µg/mL | >50 µg/mL | >50 µg/mL | >50 µg/mL | 1.56 µg/mL | 50 µg/mL | 3.12 µg/mL | 
22 | CC(C)=CCCC(C)=CC=O (mixture of isomers) [citral] |  |  |  |  |  |  |  |  | MIC of citral in combination with anidulafungin (C. auris [5]; 21 of the 22 isolates): 3 to 128 µg/mL; MIC (C. auris [5]; Candidozyma auris, 22 clinical isolates): > 1020 µg/mL; isolates with additive effect (FICI equal to 1) (C. auris [5]; citral + fluconazole): eight; isolates with synergistic effect (FICI < 1) (C. auris [5]; citral + fluconazole): three; isolates with additive effect (FICI equal to 1) (C. auris [5]; citral + isavuconazole): seven; isolates with synergistic effect (FICI < 1) (C. auris [5]; citral + isavuconazole): seven
23 | CC[C@H](C)[C@H](NC(=O)[C@H](CCCCN)NC(=O)[C@H](CCCCN)NC(=O)[C@@H](NC(=O)[C@H](CCCNC(=N)N)NC(=O)[C@H](CCCCN)NC(=O)[C@H](CCC(=O)O)NC(=O)[C@H](Cc1ccccc1)NC(=O)[C@H](CCCCN)NC(=O)[C@H](CCCNC(=N)N)NC(=O)[C@H](Cc1c[nH]c2ccccc12)NC(=O)[C@H](CCCNC(=N)N)NC(=O)[C@H](CCCCN)NC(=O)[C@H](COP(=O)(O)O)NC(=O)[C@@H](N)CCCCN)C(C)C)C(=O)N[C@@H](Cc1ccccc1)C(=O)N[C@@H](CCC(=O)O)C(=O)N[C@@H](CCCCN)C(=O)N[C@H](C(=O)N[C@@H](CCCCN)C(=O)N[C@@H](CCC(=O)O)C(=O)N[C@@H](C)C(=O)N[C@@H](CCCCN)C(N)=O)[C@@H](C)O [Act2.1] (H-K[pS]KRWRKFEKRVKKIFEKTKEAK-NH2) | 0.78 µg/mL (≈ 0.255 µM) | 1.56 µg/mL (≈ 0.51 µM) | >50 µg/mL | >50 µg/mL | >50 µg/mL | 1.56 µg/mL (≈ 0.51 µM) | >50 µg/mL | 1.56 µg/mL (≈ 0.51 µM) | 
24 | Cc1ccc(C(C)C)cc1 [p-cymene] |  |  |  |  |  |  |  |  | GM MIC (≥90% reduction of visible growth) (C. auris [2]): 215.3 µg/mL
